Data published in patent US10494332B2, “Protein tyrosine phosphatases or SHP2 inhibitors and uses thereof” (Indiana University Research and Technology Corporation, priority 2015, dated 2019).
Values joined by “and” are separate entries in the source; they are usually repeats but may differ in a detail not shown here. Equal values may be shown once. “Also recorded” adds a separate entry of the source. Read-outs that look alike come from different tables or passages of the source.

Tests used:
PP5 = molecular target: T1, PP5 (Homo sapiens, UniProt P53041); assay: biochemical
T1 sequence (P53041 1-499): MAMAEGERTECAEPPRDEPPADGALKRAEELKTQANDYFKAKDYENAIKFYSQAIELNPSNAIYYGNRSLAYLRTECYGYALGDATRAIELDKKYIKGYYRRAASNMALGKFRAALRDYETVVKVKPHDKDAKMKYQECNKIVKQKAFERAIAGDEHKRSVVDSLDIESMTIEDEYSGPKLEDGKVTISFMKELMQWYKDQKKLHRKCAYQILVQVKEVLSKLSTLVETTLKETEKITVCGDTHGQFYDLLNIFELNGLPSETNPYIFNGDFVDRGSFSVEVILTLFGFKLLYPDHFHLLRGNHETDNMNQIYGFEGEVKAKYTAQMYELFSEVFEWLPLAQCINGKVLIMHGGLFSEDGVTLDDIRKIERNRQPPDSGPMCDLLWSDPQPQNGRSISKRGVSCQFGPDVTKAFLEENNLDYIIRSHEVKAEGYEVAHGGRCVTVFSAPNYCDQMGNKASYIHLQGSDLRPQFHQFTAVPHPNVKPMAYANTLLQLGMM

[1] = Stability in buffer solutions by LC-MS; format: physicochemical
Description: (§1) Agilent Technologies 6130 quadrupole LC-MS instrument was used for the LC-MS studies. A C18 reserved phase column (phenomenex, 50×4.6 mm) was used as stationary phase, water and methanol (both containing 0.1% formic acid) were used as mobile phase (gradient: 0-100% methanol, flow 0.8 mL/min, run time 15 minutes), and UV absorbance at the fixed wavelength of 254 nm and positive and negative ESI-MS data were recorded. The sample was adjusted to have a concentration at 0.1 mg/mL, and the injection volume of each sample was 0.2 μL. The retention time and corresponding ESI-MS data were used as identity of molecules.

SHP2/R362A = SHP2/R362A (Homo sapiens, UniProt Q06124, R362A); assay: SHP2 mutant inhibition assay (pNPP); format: biochemical
Chain of SHP2/R362A (Q06124 224-528 R362A): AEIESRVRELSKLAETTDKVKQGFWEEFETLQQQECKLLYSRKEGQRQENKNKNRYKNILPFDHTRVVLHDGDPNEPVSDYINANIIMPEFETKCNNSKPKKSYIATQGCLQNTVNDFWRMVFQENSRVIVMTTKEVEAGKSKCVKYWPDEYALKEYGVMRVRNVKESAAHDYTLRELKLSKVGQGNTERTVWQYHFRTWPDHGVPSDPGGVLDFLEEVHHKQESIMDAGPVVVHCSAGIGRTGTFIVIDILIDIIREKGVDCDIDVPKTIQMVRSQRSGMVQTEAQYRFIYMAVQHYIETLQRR

SHP2/E508A = SHP2/E508A (Homo sapiens, UniProt Q06124, E508A); assay: SHP2 mutant inhibition assay (pNPP); format: biochemical; details: pH 7.0
Chain of SHP2/E508A (Q06124 224-528 E508A): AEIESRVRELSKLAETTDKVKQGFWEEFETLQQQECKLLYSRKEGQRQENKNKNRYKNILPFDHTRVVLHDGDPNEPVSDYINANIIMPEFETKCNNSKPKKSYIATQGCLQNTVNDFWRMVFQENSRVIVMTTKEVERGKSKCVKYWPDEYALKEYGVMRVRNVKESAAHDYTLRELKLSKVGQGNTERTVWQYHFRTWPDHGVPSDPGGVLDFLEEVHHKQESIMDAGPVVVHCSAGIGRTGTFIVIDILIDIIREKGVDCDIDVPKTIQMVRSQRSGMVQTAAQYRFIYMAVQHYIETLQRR

SHP2 [2] = molecular target: SHP2 (Homo sapiens, UniProt Q06124); assay: Covalent modification of SHP2 by QTOF ESI-MS / LC-MS; details: 100 μM compound; cefsulodin three hours, phenyl vinyl sulfone 10 minutes
Description: Agilent 6520 Accurate-Mass was used for the Q-TOF ESI-MS studies. Water and acetonitrile (both containing 0.1% formic acid) were used as eluent (80% water, flow 50 μL/min, run time 5 minutes). ESI positive mode was used with mass range from 300 to 1700, the gas temperature was 325° C., and vaporizer temperature was: […]. The sample was adjusted to have a concentration at 0.1 mg/mL, the injection volume of each sample was 1 μL. Mass hunter software was used for protein deconvolution data analysis to calculate the molecular weight of the protein.
as §1

PTPμ = PTPμ (Homo sapiens, UniProt P28827); assay: biochemical
Chain of PTPμ (P28827 21-1452): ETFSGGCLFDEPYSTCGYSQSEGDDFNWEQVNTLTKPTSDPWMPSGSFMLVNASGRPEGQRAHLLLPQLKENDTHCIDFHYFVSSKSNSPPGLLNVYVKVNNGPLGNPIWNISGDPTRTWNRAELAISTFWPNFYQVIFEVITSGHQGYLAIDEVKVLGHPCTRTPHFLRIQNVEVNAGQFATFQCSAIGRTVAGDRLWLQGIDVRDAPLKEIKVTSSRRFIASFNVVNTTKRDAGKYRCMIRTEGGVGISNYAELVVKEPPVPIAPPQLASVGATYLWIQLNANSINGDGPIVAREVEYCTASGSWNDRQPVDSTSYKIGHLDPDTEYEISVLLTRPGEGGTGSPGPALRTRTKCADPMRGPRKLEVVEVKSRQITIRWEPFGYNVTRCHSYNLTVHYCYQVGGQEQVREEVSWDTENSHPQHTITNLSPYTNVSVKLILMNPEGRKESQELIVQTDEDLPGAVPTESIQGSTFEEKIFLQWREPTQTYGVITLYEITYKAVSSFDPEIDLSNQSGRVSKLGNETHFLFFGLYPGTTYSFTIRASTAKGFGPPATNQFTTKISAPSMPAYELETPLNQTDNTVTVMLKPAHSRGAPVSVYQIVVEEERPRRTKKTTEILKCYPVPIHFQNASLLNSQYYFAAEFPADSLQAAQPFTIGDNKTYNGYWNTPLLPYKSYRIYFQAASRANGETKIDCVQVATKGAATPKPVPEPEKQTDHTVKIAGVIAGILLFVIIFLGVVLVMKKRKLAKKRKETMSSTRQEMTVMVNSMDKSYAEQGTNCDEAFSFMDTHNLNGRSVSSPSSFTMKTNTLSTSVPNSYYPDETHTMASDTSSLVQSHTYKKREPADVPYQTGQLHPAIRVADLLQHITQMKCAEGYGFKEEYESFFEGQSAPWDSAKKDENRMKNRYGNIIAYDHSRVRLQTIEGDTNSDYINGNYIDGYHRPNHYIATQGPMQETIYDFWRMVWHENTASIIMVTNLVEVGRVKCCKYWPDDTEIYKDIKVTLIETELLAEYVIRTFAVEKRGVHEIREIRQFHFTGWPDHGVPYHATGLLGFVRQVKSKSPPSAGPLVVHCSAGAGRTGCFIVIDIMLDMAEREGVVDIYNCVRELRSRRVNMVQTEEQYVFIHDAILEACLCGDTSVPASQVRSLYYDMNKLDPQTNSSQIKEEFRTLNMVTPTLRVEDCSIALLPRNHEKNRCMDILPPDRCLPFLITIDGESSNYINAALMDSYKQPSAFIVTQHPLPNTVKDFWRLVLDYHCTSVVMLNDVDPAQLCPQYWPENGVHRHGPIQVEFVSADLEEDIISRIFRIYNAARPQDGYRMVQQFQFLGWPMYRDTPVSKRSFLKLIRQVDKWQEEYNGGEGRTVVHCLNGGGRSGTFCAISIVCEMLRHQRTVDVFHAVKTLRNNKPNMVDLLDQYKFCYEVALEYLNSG

SHP2 [3] = molecular target: T2, SHP2 (Homo sapiens, UniProt Q06124); assay: SHP2 phosphatase inhibition assay (pNPP); format: biochemical; details: for Fold selectivity for SHP2 against PTPs examined: cefsulodin: with the exception of SHP1; for Mode of SHP2 inhibition: with respect to pNPP
T2 sequence (Q06124 224-528): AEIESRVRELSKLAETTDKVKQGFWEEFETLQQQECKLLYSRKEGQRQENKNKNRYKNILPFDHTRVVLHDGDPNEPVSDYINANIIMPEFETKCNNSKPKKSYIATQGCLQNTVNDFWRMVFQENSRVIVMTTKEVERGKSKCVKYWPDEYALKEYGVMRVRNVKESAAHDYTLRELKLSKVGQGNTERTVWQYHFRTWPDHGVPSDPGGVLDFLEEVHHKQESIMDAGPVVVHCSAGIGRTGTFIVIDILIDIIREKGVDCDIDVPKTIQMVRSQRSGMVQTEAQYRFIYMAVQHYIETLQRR

[4] = Pharmacokinetics and bioavailability in guinea pigs; format: in vivo, guinea pig; details: oral
Description: All drugs were suspended in 1% DMSO, 0.5% DEA, 48.5% PEG 400, and 50% water. Blood was collected for analysis of these drugs in plasma pre-dose and at 1, 4, 8, 24, and 48 h post-dose. Plasma was separated and stored at −70° C. until analysis. Plasma drug concentrations were determined by liquid chromatography-mass spectrometry and liquid chromatography-tandem mass spectrometry over the concentration range of 0.005-1 mg/L with dilution to 10 mg/L. Pharmacokinetic variables were calculated from individual drug concentration-time data using non-compartmental methods as implemented in WinNonlin version 5.0 (Pharsight, Mountain View, Calif.) as described earlier.

M. tuberculosis Erdman = assay: Microplate Alamar Blue assay (MABA) MIC; format: cell-based; details: Mycobacterium tuberculosis, minimum inhibitory concentration, read-out: In vitro anti-Mtb activity MABA-MIC Erdman
M. tuberculosis H37Rv = assay: Microplate Alamar Blue assay (MABA) MIC; format: cell-based, Mycobacterium tuberculosis
[5] = tested on: M. tuberculosis (Erdman and H37Rv) in J774 macrophages; assay: Macrophage assay: growth of M. tuberculosis in IFN-γ activated J774 macrophages; format: cell-based, Mycobacterium tuberculosis
[6] = tested on: H1975 non-small cell lung cancer (NSCLC) cell line; assay: MTT cell proliferation assay; format: cell-based, human; details: 20 μM and 40 μM, 2 days
Description: (§2) Human non-small cell lung carcinoma cell line H1975 was cultured at 37° C. and 5% CO2 in RPMI-1640 (Corning) supplemented with 10% fetal bovine serum (HyClone). Human breast cancer cell line MDA-MB-231 was cultured in DMEM supplemented with 10% fetal bovine serum. For cell proliferation assay, 2˜3×10^3 cells were seeded in each well of 96-well plates. After treating cells with compounds for 2 days, cells were incubated with 50 μg/ml MTT (3-(4,5-Dimethylthiazol-2-yl)-2,5-diphenyltetrazolium bromide) for ˜3-4 hours. Then, the culture medium was removed, DMSO was added to dissolve the formazan crystals. Wells containing only media were used for background correction. The optical density was measured spectrophotometrically at 540 nm. For signaling analysis, cells were serum-starved overnight followed by treatment with vehicle or compounds for 3 hours, and then either left un-stimulated or stimulated with 5 μg/ml EGF or 10 nM PMA (Sigma) for indicated time. Cells were lysed and the lysates were electrophoresed on a 10% polyacrylamide gel, and then transferred to a nitrocellulose membrane, and probed with anti-phospho-ERK1/2 and anti-ERK1/2 (Cell Signaling) antibodies followed by incubation with horseradish peroxidase-conjugated secondary antibodies. The blots were developed by the enhanced chemiluminescence technique using the SuperSignal West Pico Chemiluminescent substrate (Pierce).

[7] = tested on: MDA-MB-231 breast cancer cell line; assay: MTT cell proliferation assay; format: cell-based, human; details: 20 μM and 40 μM, 2 days
Description: as §2

[8] = tested on: EGF-mediated ERK1/2 phosphorylation in H1975 cells; assay: EGF-induced ERK1/2 phosphorylation immunoblot; format: cell-based, human; details: compound 7 at 40 μM
Description: as §2

SKBR3 cells = assay: Cell growth in 3D Matrigel; format: cell-based; details: 5 days
Description: (§3) Approximately 300,000 SKBR3 cells were seeded into 150 μL of growth factor reduced Matrigel (BD) that was then covered with 2 mLs of media containing either 20 μL vehicle (DMSO) or the indicated concentrations of compound 2. Cells were then imaged at 24-hour intervals using a NIKON SMZ1500 stereomicroscope. After 5 days the cells were recovered from the Matrigel by the following method. Media was aspirated and cells were washed with 500 μL of cold PBS. 150 μL of RIPA lysis buffer supplemented with ProteCEASE-50. EDTA Free protease inhibitors (GBiosciences) was added to the Matrigel. Cells were scraped into a slurry and instantly frozen using dry ice for 5 minutes. After thawing tubes were spun down at 4° C. for 10 minutes at 14K rpm. Proteins were then resolved by SDS-PAGE and the relative levels of total and phospho-ERK1/2 were detected by immunoblot analysis.

[9] = tested on: PMA-stimulated ERK1/2 phosphorylation; assay: PMA-induced ERK1/2 phosphorylation immunoblot; format: cell-based, human
Description: as §2

[10] = tested on: ERK1/2 phosphorylation in SKBR3 cells; assay: ERK1/2 immunoblot of cells recovered from Matrigel; format: cell-based; details: 5 days
Description: as §3

[11] = Example 9: SHP2 catalytic domain 20 nM, pNPP 3 mM, pH 7.0, 25° C., read-out: IC50 SHP2

## NC(=O)c1cc[n+](CC2=C(C(=O)O)N3C(=O)[C@@H](NC(=O)[C@@H](c4ccccc4)S(=O)(=O)[O-])[C@H]3SC2)cc1 [Cefsulodin, reference compound]
PP5
  IC50: > 200 µM
[1]; 20 mM MES, 250 mM NaCl, 1 mM EDTA, LC-MS
  Degradation in pH 5.8 MES buffer: negligible
[1]; 33 mM Citric acid, 67 mM BIS-TRIS Propane, LC-MS
  Degradation in pH 7.4 CBTP buffer: obvious
[1]; LC-MS
  Degradation in CBTP buffer at pH 9.1: further accelerated
  Time stable in MES buffer pH=5.8: at least 2 days
  Time until compound was gone in CBTP buffer pH=9.1: ≤ 12 h
[1]; final pH=7.1, 20° C., with SHP2 and DTT
  Time to complete degradation under crystallization condition: ≤ 2 days
SHP2/R362A; pNPP, pH 7.0
  IC50: 46.5 ± 4.9 µM
SHP2/R362A; vs wild-type SHP2
  Fold increase of IC50 by replacement of R362 with alanine: 3 fold
SHP2/E508A
  IC50: 19 ± 1 µM
SHP2 [2]
  Covalent adduct formation with SHP2 (QTOF ESI-MS): no covalent adduct formation
PTPμ
  IC50: > 200 µM
SHP2 [3]; [11]
  IC50: 16.8 µM and 16.7 µM
SHP2 [3]; Lineweaver-Burk, pNPP as substrate
  Ki: 6.6 ± 0.2 µM
SHP2 [3]
  Fold selectivity for SHP2 against PTPs examined: greater than 10 fold
  Mode of SHP2 inhibition: competitive inhibitor
SHP2 [3]; incubated with SHP2 for 30 minutes prior to addition of pNPP, read-out: IC50 SHP2, inhibitor pre-mixed with SHP2
  IC50: 16.8 ± 1.8 µM
SHP2 [3]; incubated with pNPP for 30 minutes prior to addition of SHP2, read-out: IC50 SHP2, inhibitor pre-mixed with pNPP
  IC50: 17.5 ± 2 µM
SHP2 [3]; listed as cefsulodin
  Mode of SHP2 inhibition: competitive and reversible SHP2 inhibitor

## O=C(O)c1cc2c(C#Cc3cccc(C(F)(F)F)c3)c(-c3ccccc3)oc2cc1O [Compound L01Z08]
[4]
  Oral bioavailability and half-life in guinea pigs: good oral bioavailability and half-life
M. tuberculosis Erdman
  MIC: > 10 µM
M. tuberculosis H37Rv
  Activity in standard MIC assay: inactive
M. tuberculosis H37Rv; Mycobacterium tuberculosis, H37RV, minimum inhibitory concentration, read-out: In vitro anti-Mtb activity MABA-MIC H37Rv
  MIC: > 10 µM
[5]; J774A.1 macrophages, low micromolar concentrations
  Anti-Mtb activity in infected macrophages: potent anti-Mtb activity
[5]; Mycobacterium tuberculosis, J774, IC90 in macrophages activated with interferon-γ, read-out: In vitro anti-Mtb activity, Mtb-infected macrophages (IC90)
  IC90: < 5 µM

## O=C(Nc1ccc(I)cc1)C(=O)Nc1ccc(NC(=O)C(c2ccccc2)S(=O)(=O)O)cc1 (stereo not shown) [Compound 2, 2-((4-(2-((4-iodophenyl)amino)-2-oxoacetamido)phenyl)amino)-2-oxo-1-phenylethanesulfonic acid]
[6]
  H1975 cell proliferation (MTT): reduce H1975 cell proliferation in a dose dependent manner; also recorded: dose dependently inhibited; also recorded: significantly (**p<0.01) reduced cell proliferation
[7]
  MDA-MB-231 cell survival/growth (MTT): dose dependently inhibited; also recorded: significantly (**p<0.01) reduced cell survival
[8]
  Effect on EGF-mediated ERK1/2 phosphorylation: reduced EGF-mediated ERK1/2 phosphorylation in a dose-dependent manner; also recorded: decrease the EGF-mediated ERK1/2 phosphorylation in a dose dependent manner
PP5
  IC50: > 10 µM
SKBR3 cells; 20 μM
  SKBR3 cell growth in Matrigel: partial inhibition
SKBR3 cells; 40 μM
  SKBR3 cell growth in Matrigel: almost completely absent
[9]
  Effect on PMA-stimulated ERK1/2 phosphorylation: no effect on PMA-stimulated ERK1/2 phosphorylation
[10]; 20 μM
  ERK1/2 activity in SKBR3 cells in Matrigel: partial inhibition
[10]; 40 μM
  ERK1/2 activity in SKBR3 cells in Matrigel: barely detectable
PTPμ
  IC50: > 10 µM
SHP2 [3]; [11]
  IC50: 1.51 ± 0.06 µM
SHP2 [3]
  Fold selectivity for SHP2 against PTPs examined: at least 4 fold
